Tests used:
Histone deacetylase 4 [1] = target: T1, Histone deacetylase 4 (Homo sapiens, UniProt P56524); assay: Inhibition of HDAC4 (unknown origin)
Histone deacetylase 5 [2] = target: T2, Histone deacetylase 5 (Homo sapiens, UniProt Q9UQL6); assay: Inhibition of HDAC5 (unknown origin)
Histone deacetylase 9 [3] = target: T3, Histone deacetylase 9 (Homo sapiens, UniProt Q9UKV0); assay: Inhibition of HDAC9 (unknown origin)
Histone deacetylase 1 = Histone deacetylase 1 (Homo sapiens, UniProt Q13547); assay: Inhibition of HDAC1 (unknown origin)
Histone deacetylase 1, sequence (Q13547 whole entry): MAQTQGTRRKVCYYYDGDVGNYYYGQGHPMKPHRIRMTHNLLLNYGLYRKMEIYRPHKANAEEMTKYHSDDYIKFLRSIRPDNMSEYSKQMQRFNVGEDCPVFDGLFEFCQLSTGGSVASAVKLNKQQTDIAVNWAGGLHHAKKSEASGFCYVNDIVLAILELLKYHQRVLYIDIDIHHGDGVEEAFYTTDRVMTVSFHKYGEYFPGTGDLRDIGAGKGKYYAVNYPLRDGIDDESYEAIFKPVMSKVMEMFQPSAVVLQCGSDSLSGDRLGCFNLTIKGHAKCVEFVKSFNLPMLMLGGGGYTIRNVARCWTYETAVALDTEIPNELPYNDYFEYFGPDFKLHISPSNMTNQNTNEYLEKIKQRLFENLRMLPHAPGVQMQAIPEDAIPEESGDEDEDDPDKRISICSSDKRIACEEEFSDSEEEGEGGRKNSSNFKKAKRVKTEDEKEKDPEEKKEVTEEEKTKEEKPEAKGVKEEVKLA

Histone deacetylase 2 = Histone deacetylase 2 (Homo sapiens, UniProt Q92769); assay: Inhibition of HDAC2 (unknown origin)
Histone deacetylase 2, sequence (Q92769 whole entry): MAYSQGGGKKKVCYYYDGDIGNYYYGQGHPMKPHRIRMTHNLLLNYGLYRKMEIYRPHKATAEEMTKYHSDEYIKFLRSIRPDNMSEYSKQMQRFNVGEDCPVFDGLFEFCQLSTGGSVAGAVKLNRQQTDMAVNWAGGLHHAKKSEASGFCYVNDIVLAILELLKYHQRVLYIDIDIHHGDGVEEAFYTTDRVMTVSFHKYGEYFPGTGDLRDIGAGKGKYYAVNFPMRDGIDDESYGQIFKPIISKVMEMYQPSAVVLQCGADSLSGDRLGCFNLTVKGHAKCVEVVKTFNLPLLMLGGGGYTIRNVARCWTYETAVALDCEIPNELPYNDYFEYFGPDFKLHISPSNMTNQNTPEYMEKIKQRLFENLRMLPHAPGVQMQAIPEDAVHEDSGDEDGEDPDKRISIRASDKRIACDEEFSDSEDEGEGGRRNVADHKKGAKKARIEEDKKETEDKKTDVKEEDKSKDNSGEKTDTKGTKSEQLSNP

Histone deacetylase 3 = Histone deacetylase 3 (Homo sapiens, UniProt O15379); assay: Inhibition of HDAC3 (unknown origin)
Histone deacetylase 3, sequence (O15379 whole entry): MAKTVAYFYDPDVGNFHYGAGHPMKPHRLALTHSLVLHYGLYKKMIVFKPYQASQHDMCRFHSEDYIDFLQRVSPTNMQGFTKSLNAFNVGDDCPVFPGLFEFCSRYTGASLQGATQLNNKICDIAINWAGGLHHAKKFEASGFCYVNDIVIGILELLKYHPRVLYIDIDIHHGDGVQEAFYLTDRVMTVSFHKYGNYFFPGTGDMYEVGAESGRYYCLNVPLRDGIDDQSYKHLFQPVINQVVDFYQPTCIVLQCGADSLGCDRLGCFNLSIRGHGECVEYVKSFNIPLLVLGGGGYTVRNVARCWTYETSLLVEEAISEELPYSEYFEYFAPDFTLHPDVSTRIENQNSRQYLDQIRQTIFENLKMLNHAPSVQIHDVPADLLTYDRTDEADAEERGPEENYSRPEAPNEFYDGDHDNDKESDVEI

[4] = target: T4, Protein deacetylase HDAC6 (Homo sapiens, UniProt Q9UBN7); assay: Inhibition of HDAC6 (unknown origin)
T4 sequence (Q9UBN7 whole entry): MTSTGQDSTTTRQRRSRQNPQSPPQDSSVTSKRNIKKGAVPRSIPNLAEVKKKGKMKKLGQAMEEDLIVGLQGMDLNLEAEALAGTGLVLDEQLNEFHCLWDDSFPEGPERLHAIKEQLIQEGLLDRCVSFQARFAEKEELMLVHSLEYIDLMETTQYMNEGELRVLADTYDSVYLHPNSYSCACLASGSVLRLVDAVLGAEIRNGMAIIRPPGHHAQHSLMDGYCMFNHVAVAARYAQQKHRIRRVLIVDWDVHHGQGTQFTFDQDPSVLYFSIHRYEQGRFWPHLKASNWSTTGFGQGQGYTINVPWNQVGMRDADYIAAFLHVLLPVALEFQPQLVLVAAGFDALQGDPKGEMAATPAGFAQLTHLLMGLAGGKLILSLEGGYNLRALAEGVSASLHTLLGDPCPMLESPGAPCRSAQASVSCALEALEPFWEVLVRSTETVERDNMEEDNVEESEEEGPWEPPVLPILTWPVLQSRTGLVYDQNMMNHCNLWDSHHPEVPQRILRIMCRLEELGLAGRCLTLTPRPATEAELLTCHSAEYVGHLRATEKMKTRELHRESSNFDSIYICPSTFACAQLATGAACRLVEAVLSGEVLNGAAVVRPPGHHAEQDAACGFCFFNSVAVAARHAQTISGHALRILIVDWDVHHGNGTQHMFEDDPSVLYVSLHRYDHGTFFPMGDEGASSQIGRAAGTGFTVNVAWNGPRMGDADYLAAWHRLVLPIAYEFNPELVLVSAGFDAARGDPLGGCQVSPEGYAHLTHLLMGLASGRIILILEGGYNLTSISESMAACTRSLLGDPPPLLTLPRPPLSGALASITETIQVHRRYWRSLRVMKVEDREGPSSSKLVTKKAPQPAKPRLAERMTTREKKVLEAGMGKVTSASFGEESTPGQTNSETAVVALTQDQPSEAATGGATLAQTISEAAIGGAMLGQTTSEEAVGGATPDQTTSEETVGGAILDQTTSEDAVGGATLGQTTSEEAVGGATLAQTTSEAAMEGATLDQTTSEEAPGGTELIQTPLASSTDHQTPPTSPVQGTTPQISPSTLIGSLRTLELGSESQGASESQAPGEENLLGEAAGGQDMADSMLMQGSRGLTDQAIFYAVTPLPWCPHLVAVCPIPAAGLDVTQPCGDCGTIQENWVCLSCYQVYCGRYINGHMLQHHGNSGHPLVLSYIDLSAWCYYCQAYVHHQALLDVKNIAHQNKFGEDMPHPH

Histone deacetylase 8 = target: T5, Histone deacetylase 8 (Homo sapiens, UniProt Q9BY41); assay: Inhibition of HDAC8 (unknown origin)
T5 sequence (Q9BY41 whole entry): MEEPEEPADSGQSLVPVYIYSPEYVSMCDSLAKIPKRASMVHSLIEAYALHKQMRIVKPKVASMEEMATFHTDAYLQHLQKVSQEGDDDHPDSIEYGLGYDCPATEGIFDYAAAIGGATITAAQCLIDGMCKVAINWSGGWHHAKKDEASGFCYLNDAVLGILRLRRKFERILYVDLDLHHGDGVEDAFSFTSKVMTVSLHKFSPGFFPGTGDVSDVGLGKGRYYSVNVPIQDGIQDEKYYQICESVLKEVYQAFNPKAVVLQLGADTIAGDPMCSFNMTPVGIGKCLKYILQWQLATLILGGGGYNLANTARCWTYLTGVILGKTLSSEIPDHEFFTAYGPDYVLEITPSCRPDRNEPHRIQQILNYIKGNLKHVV

[5] = target: T6, Polyamine deacetylase HDAC10 (Homo sapiens, UniProt Q969S8); assay: Inhibition of HDAC10 (unknown origin)
T6 sequence (Q969S8 whole entry): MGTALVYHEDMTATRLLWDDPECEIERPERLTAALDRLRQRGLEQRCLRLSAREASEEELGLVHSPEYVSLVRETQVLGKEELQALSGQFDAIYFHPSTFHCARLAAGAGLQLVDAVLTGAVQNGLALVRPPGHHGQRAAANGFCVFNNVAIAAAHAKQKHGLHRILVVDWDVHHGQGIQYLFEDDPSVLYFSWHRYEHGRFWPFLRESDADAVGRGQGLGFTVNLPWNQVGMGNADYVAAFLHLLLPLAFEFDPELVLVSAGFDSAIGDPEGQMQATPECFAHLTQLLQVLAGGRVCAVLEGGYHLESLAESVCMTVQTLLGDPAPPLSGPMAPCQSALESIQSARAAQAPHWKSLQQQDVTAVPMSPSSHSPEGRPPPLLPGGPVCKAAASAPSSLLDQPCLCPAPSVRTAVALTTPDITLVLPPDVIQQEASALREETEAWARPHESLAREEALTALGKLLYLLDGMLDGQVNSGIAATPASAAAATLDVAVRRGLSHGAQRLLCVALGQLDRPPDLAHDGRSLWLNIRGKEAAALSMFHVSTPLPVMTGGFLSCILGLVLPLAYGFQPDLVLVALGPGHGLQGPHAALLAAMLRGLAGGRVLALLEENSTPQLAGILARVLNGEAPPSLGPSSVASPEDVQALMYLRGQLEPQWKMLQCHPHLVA

Histone deacetylase 11 = target: T7, Histone deacetylase 11 (Homo sapiens, UniProt Q96DB2); assay: Inhibition of HDAC11 (unknown origin)
T7 sequence (Q96DB2 whole entry): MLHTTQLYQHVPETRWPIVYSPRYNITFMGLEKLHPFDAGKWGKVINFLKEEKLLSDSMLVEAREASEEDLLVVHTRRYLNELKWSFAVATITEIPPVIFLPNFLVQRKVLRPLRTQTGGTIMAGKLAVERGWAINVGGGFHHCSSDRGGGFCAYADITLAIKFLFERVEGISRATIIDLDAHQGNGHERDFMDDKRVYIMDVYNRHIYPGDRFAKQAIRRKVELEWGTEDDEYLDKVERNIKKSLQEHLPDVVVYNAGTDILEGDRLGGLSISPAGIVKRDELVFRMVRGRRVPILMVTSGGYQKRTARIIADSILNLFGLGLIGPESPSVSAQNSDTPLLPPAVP

Histone deacetylase 7 [6] = target: T8, Histone deacetylase 7 (Homo sapiens, UniProt Q8WUI4); assay: Inhibition of HDAC7 (unknown origin)
T8 sequence (Q8WUI4 whole entry): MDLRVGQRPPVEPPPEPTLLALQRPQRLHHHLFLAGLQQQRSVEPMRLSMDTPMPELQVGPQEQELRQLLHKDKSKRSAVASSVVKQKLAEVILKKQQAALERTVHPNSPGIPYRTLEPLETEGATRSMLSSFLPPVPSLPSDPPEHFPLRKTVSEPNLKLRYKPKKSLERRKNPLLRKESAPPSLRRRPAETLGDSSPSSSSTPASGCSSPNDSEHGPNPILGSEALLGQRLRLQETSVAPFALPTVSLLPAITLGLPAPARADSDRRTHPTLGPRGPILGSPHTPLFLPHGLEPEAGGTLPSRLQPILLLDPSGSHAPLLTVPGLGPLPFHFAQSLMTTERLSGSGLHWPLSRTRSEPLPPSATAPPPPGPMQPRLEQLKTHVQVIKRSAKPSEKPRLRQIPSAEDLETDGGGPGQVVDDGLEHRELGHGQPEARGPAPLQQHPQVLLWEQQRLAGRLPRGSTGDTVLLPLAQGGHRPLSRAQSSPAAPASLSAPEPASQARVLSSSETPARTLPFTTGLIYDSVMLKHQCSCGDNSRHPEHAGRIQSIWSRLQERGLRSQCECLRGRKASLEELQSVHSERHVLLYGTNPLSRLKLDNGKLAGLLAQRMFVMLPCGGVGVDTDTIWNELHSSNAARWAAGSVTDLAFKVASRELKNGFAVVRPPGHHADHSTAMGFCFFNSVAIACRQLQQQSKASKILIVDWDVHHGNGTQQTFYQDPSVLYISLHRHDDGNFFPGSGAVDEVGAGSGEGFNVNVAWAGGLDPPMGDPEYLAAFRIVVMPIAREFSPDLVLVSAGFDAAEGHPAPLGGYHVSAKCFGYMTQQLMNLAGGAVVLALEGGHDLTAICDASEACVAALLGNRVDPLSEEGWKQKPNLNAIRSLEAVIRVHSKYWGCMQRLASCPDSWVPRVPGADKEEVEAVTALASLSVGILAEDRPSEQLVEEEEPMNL

Histone deacetylase 4 [7] = target: T1, Histone deacetylase 4; assay: Inhibition of HDAC4 in human HeLa nuclear extract using Boc-Lys(Ac)-AMC as substrate preincubated for 5 mins followed by substrate addition measured after 30 mins by fluorometric assay; assay type: cell-free
Histone deacetylase 5 [8] = target: T2, Histone deacetylase 5; assay: Inhibition of HDAC5 in human HeLa nuclear extract using Boc-Lys(Ac)-AMC as substrate preincubated for 5 mins followed by substrate addition measured after 30 mins by fluorometric assay; assay type: cell-free
Histone deacetylase 7 [9] = target: T8, Histone deacetylase 7; assay: Inhibition of HDAC7 in human HeLa nuclear extract using Boc-Lys(Ac)-AMC as substrate preincubated for 5 mins followed by substrate addition measured after 30 mins by fluorometric assay; assay type: cell-free
Histone deacetylase 9 [10] = target: T3, Histone deacetylase 9; assay: Inhibition of HDAC9 in human HeLa nuclear extract using Boc-Lys(Ac)-AMC as substrate preincubated for 5 mins followed by substrate addition measured after 30 mins by fluorometric assay; assay type: cell-free
[11] = target: T4, Protein deacetylase HDAC6; assay: Inhibition of HDAC6 in human HeLa nuclear extract using Boc-Lys(Ac)-AMC as substrate preincubated for 5 mins followed by substrate addition measured after 30 mins by fluorometric assay; assay type: cell-free

T3 sequence (Q9UKV0 whole entry): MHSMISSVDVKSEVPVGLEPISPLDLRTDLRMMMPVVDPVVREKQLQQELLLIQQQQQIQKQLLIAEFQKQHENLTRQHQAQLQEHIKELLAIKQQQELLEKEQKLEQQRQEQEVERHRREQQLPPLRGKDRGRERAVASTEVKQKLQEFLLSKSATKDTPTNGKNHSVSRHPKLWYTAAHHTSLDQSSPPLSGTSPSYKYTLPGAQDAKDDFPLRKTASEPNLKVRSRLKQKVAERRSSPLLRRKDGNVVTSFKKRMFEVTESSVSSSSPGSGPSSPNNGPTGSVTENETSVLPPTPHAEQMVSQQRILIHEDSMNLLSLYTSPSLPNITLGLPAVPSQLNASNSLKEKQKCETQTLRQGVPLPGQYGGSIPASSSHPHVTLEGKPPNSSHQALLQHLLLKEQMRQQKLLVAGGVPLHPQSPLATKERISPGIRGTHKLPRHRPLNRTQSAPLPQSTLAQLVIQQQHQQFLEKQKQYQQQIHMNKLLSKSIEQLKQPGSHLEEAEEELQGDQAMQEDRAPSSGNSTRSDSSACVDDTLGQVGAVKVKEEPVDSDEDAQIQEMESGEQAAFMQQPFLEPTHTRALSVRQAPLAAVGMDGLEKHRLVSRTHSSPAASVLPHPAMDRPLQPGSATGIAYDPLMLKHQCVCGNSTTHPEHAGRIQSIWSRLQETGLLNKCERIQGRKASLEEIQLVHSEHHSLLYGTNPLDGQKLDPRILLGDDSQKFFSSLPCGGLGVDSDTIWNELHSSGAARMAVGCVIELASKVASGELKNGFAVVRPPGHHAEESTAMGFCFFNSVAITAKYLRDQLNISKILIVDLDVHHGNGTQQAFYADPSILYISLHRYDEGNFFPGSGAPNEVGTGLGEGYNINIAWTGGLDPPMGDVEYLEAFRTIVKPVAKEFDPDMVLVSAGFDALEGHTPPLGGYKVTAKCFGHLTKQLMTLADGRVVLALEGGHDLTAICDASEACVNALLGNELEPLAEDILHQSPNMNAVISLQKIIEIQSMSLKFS
T1 sequence (P56524 whole entry): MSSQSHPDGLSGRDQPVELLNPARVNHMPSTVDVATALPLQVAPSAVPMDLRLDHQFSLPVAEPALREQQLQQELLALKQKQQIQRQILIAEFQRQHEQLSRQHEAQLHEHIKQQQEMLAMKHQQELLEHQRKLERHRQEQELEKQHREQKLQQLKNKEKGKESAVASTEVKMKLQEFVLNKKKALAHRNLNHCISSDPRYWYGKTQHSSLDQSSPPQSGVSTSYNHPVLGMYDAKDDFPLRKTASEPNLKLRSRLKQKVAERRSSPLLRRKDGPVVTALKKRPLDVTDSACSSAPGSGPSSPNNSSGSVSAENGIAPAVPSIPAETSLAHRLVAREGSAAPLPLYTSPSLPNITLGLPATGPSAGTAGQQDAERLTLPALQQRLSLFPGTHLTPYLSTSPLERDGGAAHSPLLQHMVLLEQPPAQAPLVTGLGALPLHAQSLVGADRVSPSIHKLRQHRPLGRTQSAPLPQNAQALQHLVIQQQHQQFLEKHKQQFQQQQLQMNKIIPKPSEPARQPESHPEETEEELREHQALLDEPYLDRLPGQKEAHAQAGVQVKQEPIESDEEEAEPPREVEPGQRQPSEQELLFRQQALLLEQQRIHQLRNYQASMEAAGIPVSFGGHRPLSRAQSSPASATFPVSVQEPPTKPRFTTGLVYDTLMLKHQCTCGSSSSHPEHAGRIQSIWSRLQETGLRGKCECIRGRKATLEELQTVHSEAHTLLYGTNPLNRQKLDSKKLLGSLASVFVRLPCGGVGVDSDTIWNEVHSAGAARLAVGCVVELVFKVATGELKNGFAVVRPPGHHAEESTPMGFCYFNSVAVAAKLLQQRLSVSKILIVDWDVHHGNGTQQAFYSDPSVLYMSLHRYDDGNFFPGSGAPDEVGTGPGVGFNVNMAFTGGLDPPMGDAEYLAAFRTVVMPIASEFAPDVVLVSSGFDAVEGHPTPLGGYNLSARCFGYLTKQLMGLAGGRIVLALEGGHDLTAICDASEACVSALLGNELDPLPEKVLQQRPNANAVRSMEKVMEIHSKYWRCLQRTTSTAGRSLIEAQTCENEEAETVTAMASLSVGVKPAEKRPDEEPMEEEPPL
T2 sequence (Q9UQL6 whole entry): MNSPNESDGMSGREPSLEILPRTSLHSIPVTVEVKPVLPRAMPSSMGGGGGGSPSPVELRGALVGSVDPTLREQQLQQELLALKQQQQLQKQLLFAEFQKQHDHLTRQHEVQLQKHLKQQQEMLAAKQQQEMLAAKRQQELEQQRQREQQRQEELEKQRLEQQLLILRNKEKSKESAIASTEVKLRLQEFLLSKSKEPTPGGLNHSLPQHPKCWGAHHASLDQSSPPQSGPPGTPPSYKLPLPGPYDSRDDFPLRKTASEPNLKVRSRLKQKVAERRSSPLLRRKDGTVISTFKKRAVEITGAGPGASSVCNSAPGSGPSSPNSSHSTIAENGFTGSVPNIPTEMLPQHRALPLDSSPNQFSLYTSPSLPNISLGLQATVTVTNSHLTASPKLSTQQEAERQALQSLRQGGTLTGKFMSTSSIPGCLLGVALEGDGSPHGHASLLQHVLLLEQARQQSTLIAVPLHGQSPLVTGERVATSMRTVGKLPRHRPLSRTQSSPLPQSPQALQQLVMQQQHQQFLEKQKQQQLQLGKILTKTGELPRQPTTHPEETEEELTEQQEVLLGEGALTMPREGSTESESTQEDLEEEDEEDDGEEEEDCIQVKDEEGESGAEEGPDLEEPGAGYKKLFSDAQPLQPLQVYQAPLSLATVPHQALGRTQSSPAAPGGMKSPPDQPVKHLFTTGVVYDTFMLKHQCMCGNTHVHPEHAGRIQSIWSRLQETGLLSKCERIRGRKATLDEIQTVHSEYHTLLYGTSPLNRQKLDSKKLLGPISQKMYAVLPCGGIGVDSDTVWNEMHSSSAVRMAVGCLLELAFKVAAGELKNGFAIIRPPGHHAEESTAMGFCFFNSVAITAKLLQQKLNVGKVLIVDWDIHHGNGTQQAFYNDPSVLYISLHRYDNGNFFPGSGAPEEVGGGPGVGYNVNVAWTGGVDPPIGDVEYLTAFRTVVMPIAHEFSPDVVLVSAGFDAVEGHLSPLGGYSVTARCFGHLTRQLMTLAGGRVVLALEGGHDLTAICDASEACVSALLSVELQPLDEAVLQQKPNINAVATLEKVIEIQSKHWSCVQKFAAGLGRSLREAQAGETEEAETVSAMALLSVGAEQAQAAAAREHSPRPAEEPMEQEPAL

| Structure (SMILES) | Ki (Histone deacetylase 4 [1]) [µM] | Ki (Histone deacetylase 5 [2]) [µM] | Ki (Histone deacetylase 9 [3]) [µM] | Ki (Histone deacetylase 1) [µM] | Ki (Histone deacetylase 2) [µM] | Ki (Histone deacetylase 3) [µM] | Ki [4] [µM] | Ki (Histone deacetylase 8) [µM] | Ki [5] [µM] | Ki (Histone deacetylase 11) [µM] | further results |
| --- | --- | --- | --- | --- | --- | --- | --- | --- | --- | --- | --- |
| CN1CCC(CNC(=O)c2cccc(-c3noc(C(F)(F)F)n3)c2)(c2nc(-c3ccccc3)cs2)CC1 | 0.075 | 0.182 | 0.008 | > 23 | > 19 | > 43 | 2.81 | 7.66 | > 10 | > 19 |  |
| CN1CCC(CNC(=O)c2cccc(C(=O)NO)c2)(c2nc(-c3ccccc3)cs2)CC1 | 23.8 | 24.3 | 5.98 | 11.9 | > 19 | > 43 | 0.189 | 1.33 | > 10 | > 19 | Ki (Histone deacetylase 7 [6]): 3.94 µM |
| CN(Cc1cnc2nc(N)nc(N)c2n1)c1ccc(C(=O)NC(CCP(=O)(O)O)P(=O)(O)O)cc1 (stereo unspecified) |  |  |  |  |  |  |  |  |  |  | IC50 (Histone deacetylase 4 [1]): 4.16 µM; IC50 (Histone deacetylase 5 [2]): 1.27 µM; IC50 (Histone deacetylase 7 [6]): 16.2 µM; IC50 (Histone deacetylase 9 [3]): 7.84 µM; IC50 [4]: > 40 µM; IC50 (Histone deacetylase 4 [7]): > 40 µM; IC50 (Histone deacetylase 5 [8]): > 40 µM; IC50 (Histone deacetylase 7 [9]): > 40 µM; IC50 (Histone deacetylase 9 [10]): > 40 µM; IC50 [11]: > 40 µM |

— ChEMBL document CHEMBL4364347, “Recent advances in class IIa histone deacetylases research” (Bioorg Med Chem, 2019)
